This is an account of results in US20250262201A1, “COMPOUNDS AND METHODS USEFUL FOR STABILIZING PHENYLALANINE HYDROXYLASE MUTATIONS” (Agios Pharmaceuticals, Inc., priority 2022, published 2025).

Molecules are shown by their SMILES.

The target of one assay is T1, human PAH with the R408W mutation (Homo sapiens, UniProt P00439, R408W).
T1 construct: expressed in transfected cells
T1 sequence (P00439 1-452 R408W): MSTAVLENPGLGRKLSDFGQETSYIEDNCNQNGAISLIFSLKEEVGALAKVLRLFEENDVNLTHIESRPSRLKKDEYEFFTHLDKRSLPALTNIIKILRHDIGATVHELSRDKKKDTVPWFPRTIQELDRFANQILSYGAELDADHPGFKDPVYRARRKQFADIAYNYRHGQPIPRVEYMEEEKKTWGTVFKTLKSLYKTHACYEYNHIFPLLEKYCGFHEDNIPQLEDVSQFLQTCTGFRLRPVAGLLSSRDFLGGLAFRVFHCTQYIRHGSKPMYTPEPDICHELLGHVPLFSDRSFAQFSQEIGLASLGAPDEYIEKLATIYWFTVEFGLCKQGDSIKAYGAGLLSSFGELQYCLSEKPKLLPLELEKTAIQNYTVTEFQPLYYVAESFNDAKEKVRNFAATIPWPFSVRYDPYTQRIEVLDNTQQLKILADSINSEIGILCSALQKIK
Kind of assay: Cell Based Phenylalanine Flux Assay. More on the design: scale not given here. Particulars: A375 R408W cells, 24 hrs with compound, then 20 μM sepiapterin and 800 μM 13C9,15N-Phenylalanine for 4 hours; 13C-Tyrosine by LC-MS; average where tested multiple times.
On to `Cc1nc(C(F)(F)F)c(C(=O)N2CCc3nc[nH]c3[C@@H]2c2cn3ccccc3n2)o1` (single isomer, unassigned), for which the half-maximal activity concentration (AC50) result is given as “E, E”.

As for `Cc1nc(C(F)(F)F)c(C(=O)N2CCc3nc[nH]c3[C@H]2c2cn3ccccc3n2)o1` (single isomer, unassigned), the half-maximal activity concentration (AC50) result is “E, E”.

For `Cn1ccc(-c2nc(C(F)F)c(C(=O)N3CCc4[nH]cnc4[C@H]3c3ncc4ccccc4n3)o2)n1` (single isomer, unassigned), the AC50 result is reported as “E, E”.

As for `Cc1ncoc1C(=O)N1C[C@@H](C)c2[nH]cnc2[C@@H]1c1cc2ccccc2cn1` (single isomer, unassigned), the AC50 result was “E, E”.

With `C[C@H]1CN(C(=O)c2ocnc2C(F)(F)F)[C@@H](c2cc3ccccc3cn2)c2nc[nH]c21` (single isomer, unassigned), the concentration at half-maximal activity (AC50) entry is “E, E”.

The assay is the same for the next values; noted with them: A375 R408W cells, 24 hrs with compound, then 20 μM sepiapterin and 800 μM 13C9,15N-Phenylalanine for 4 hours; 13C-Tyrosine by LC-MS; average where tested multiple times; read-out: AC50.
On to `CC(C)(O)c1cc(C(=O)N2CCc3[nH]cnc3[C@H]2c2cc3ccccc3cn2)no1`, for which the AC50 lay within 1 to 5 µM.

On to `CC(C)(O)c1cc(C(=O)N2CCc3[nH]cnc3[C@H]2c2cc3ccccc3cn2)on1`, for which the AC50 is 1 to 5 µM.

Take `O=C(c1nnc(CCN2CC(F)C2)o1)N1CCc2[nH]cnc2[C@H]1c1cc2ccccc2cn1`: the AC50 lay within 1 to 5 µM.

As to `CN1CCN(c2nnc(C(=O)N3CCc4[nH]cnc4[C@H]3c3cc4ccccc4cn3)o2)CC1`, the concentration at half-maximal activity (AC50) fell in the range of 1 to 5 µM.

Take `O=C(CCc1cnco1)N1CCc2[nH]cnc2C1c1cn2ccccc2n1` (centres unmarked): the concentration at half-maximal activity (AC50) lay within 1 to 5 µM.

As to `Cc1nnc(CCC(=O)N2CCc3[nH]cnc3C2c2cn3ccccc3n2)o1` (centres unmarked), the AC50 was greater than 5 µM.

As for `O=C(Cn1cncn1)N1CCc2[nH]cnc2C1c1cn2ccccc2n1` (centres unmarked), the AC50 was greater than 5 µM.

As to `O=C(CCc1ncco1)N1CCc2[nH]cnc2C1c1cn2ccccc2n1` (centres unmarked), the AC50 is 1 to 5 µM.

In the case of `O=C(CCc1ccccc1)N1CCc2[nH]cnc2C1c1cn2ccccc2n1` (centres unmarked) [listing 1 of 2 here], the half-maximal activity concentration (AC50) lay within 1 to 5 µM.

On to `O=C(Cc1ccccn1)N1CCc2[nH]cnc2C1c1cn2ccccc2n1` (centres unmarked), for which the half-maximal activity concentration (AC50) is greater than 5 µM.

On to `Cc1nnc(CCC(=O)N2CCc3[nH]cnc3C2c2cn3ccccc3n2)s1` (centres unmarked), for which the AC50 is greater than 5 µM.

Consider `O=C(CCc1cncs1)N1CCc2[nH]cnc2C1c1cn2ccccc2n1` (centres unmarked), for which the concentration at half-maximal activity (AC50) is greater than 5 µM.

For the compound `O=C(c1cnc(C2(O)CCC2)s1)N1CCc2[nH]cnc2C1c1cn2ccccc2n1` (centres unmarked), the concentration at half-maximal activity (AC50) is 1 to 5 µM.

Regarding `CN1CCN(c2nnc(C(=O)N3CCc4[nH]cnc4C3c3cn4ccccc4n3)o2)CC1` (centres unmarked), the AC50 is greater than 5 µM.

Consider `CC(C)(F)c1ncc(C(=O)N2CCc3[nH]cnc3C2c2cn3ccccc3n2)o1` (centres unmarked), for which the AC50 was in the range of 1 to 5 µM.

`Cn1cc(-c2nnc(C(=O)N3CCc4[nH]cnc4C3c3cn4ccccc4n3)o2)cn1` (centres unmarked): the AC50 lay within 1 to 5 µM.

Regarding `CC(C)(O)c1nc(C2CC2)c(C(=O)N2CCc3[nH]cnc3C2c2cn3ccccc3n2)o1` (centres unmarked), the AC50 fell in the range of 1 to 5 µM.

For the compound `O=C(c1oc(-c2ccccn2)nc1C1CC1)N1CCCc2[nH]cnc2C1c1cn2ccccc2n1` (centres unmarked), the AC50 was greater than 5 µM.

Regarding `O=C(c1oc(-c2ccccn2)nc1C1CC1)N1CCc2nc[nH]c2C1c1cn2ccccc2n1` (centres unmarked), the AC50 was in the range of 1 to 5 µM.

In the case of `O=C(c1ocnc1-c1ccccn1)N1CCc2[nH]cnc2C1c1cn2ccccc2n1` (centres unmarked), the concentration at half-maximal activity (AC50) lay in the range of 1 to 5 µM.

Turning to `Cc1nc(-c2ccccn2)oc1C(=O)N1CCc2[nH]cnc2C1c1cn2ccccc2n1` (centres unmarked) [listing 1 of 2 here], the AC50 lay within 1 to 5 µM.

Consider `O=C(c1nnc(-c2ccccn2)o1)N1CCc2[nH]cnc2C1c1cn2ccccc2n1` (centres unmarked), for which the half-maximal activity concentration (AC50) was in the range of 1 to 5 µM.

Regarding `O=C(c1nnc(-c2ccccn2)o1)N1CCCc2[nH]cnc2C1c1cn2ccccc2n1` (centres unmarked), the AC50 is greater than 5 µM.

As for `CC(C)(O)c1ncc(C(=O)N2CCc3[nH]cnc3C2c2cn3ccccc3n2)s1` (centres unmarked), the AC50 was in the range of 1 to 5 µM.

Regarding `O=C(c1cnc(C(F)F)s1)N1CCc2[nH]cnc2C1c1cn2ccccc2n1` (centres unmarked), the AC50 lay in the range of 1 to 5 µM.

Take `O=C(c1nnc(C2CC2)o1)N1CCc2[nH]cnc2C1c1cn2ccccc2n1` (centres unmarked): the AC50 was 1 to 5 µM.

`O=C(c1cnc(C2CC2)o1)N1CCc2[nH]cnc2C1c1cn2ccccc2n1` (centres unmarked): the AC50 is 1 to 5 µM.

Regarding `O=C(c1cnc(C2CC2)s1)N1CCc2[nH]cnc2C1c1cn2ccccc2n1` (centres unmarked) [listing 1 of 2 here], the AC50 was 1 to 5 µM.

For the compound `O=C(N1CCc2[nH]cnc2C1c1cn2ccccc2n1)C(F)(F)C1(O)CCC1` (centres unmarked), the AC50 is 1 to 5 µM.

For `O=C(CCc1nc2ccccc2o1)N1CCc2[nH]cnc2C1c1cn2ccccc2n1` (centres unmarked), the AC50 fell in the range of 1 to 5 µM.

For `O=C(CCc1nnc(C(F)F)o1)N1CCc2[nH]cnc2C1c1cn2ccccc2n1` (centres unmarked), the AC50 is greater than 5 µM.

`O=C(c1nnc(N2CCOCC2)o1)N1CCc2[nH]cnc2C1c1cn2ccccc2n1` (centres unmarked): the concentration at half-maximal activity (AC50) is greater than 5 µM.

For `O=C(c1ocnc1C(F)F)N1CCc2nc[nH]c2C1c1cn2ccccc2n1` (centres unmarked), the AC50 lay in the range of 1 to 5 µM.

With `COCc1ncc(C(=O)N2CCc3[nH]cnc3C2c2cn3ccccc3n2)o1` (centres unmarked), the concentration at half-maximal activity (AC50) was greater than 5 µM.

Regarding `O=C(c1cnc(C(F)(F)F)o1)N1CCc2[nH]cnc2C1c1cn2ccccc2n1` (centres unmarked), the AC50 lay in the range of 1 to 5 µM.

With `N#Cc1ncoc1C(=O)N1CCc2[nH]cnc2C1c1cn2ccccc2n1` (centres unmarked) [listing 1 of 2 here], the AC50 was in the range of 1 to 5 µM.

Regarding `O=C(c1cnc(C(F)(F)F)s1)N1CCc2[nH]cnc2C1c1cn2ccccc2n1` (centres unmarked) [listing 1 of 2 here], the half-maximal activity concentration (AC50) lay in the range of 1 to 5 µM.

`O=C(C1CC1(F)F)N1CCc2[nH]cnc2C1c1cn2ccccc2n1` (centres unmarked) [listing 1 of 3 here]: the AC50 is 1 to 5 µM.

As for `O=C(C1CC1(F)F)N1CCc2[nH]cnc2C1c1cn2ccccc2n1` (centres unmarked) [listing 2 of 3 here], the concentration at half-maximal activity (AC50) is 1 to 5 µM.

Regarding `O=C(CCc1ccccc1)N1CCc2[nH]cnc2C1c1cn2ccccc2n1` (centres unmarked) [listing 2 of 2 here], the AC50 was greater than 5 µM.

For the compound `Cc1nc(-c2ccccn2)oc1C(=O)N1CCc2[nH]cnc2C1c1cn2ccccc2n1` (centres unmarked) [listing 2 of 2 here], the AC50 is greater than 5 µM.

As to `O=C(c1cnc(C2CC2)s1)N1CCc2[nH]cnc2C1c1cn2ccccc2n1` (centres unmarked) [listing 2 of 2 here], the AC50 is greater than 5 µM.

Take `N#Cc1ncoc1C(=O)N1CCc2[nH]cnc2C1c1cn2ccccc2n1` (centres unmarked) [listing 2 of 2 here]: the AC50 is greater than 5 µM.

In the case of `O=C(c1cnc(C(F)(F)F)s1)N1CCc2[nH]cnc2C1c1cn2ccccc2n1` (centres unmarked) [listing 2 of 2 here], the AC50 is greater than 5 µM.

Regarding `O=C(C1CC1(F)F)N1CCc2[nH]cnc2C1c1cn2ccccc2n1` (centres unmarked) [listing 3 of 3 here], the AC50 was greater than 5 µM.

`Cc1ncoc1C(=O)N1CC2(CC2)c2[nH]cnc2C1c1cn2ccccc2n1` (centres unmarked): the AC50 lay in the range of 1 to 5 µM.

For the compound `CC1CN(C(=O)c2nnc(N3CC(F)C3)o2)C(c2cc3ccccc3cn2)c2nc[nH]c21` (centres unmarked), the AC50 was greater than 5 µM.

With `CC1CN(C(=O)c2nnc(N3CCN(C)CC3)o2)C(c2cc3ccccc3cn2)c2nc[nH]c21` (centres unmarked), the AC50 was in the range of 1 to 5 µM.

As to `CC1CN(c2nnc(-c3ccccn3)o2)C(c2cc3ccccc3cn2)c2nc[nH]c21` (centres unmarked), the AC50 was in the range of 1 to 5 µM.

For the compound `CC1CN(C(=O)c2oc(-c3ccccn3)nc2C(F)(F)F)C(c2cc3ccccc3cn2)c2nc[nH]c21` (centres unmarked), the half-maximal activity concentration (AC50) is 0.5 to 1 µM.

Consider `CC(C)(O)c1ccc2c(C(=O)N3CCc4[nH]cnc4[C@H]3c3cc4ccccc4cn3)cnn2c1` (single isomer, unassigned), for which the half-maximal activity concentration (AC50) lay in the range of 1 to 5 µM.

On to `COCc1ncc(C(=O)N2CCc3[nH]cnc3[C@@H]2c2ccc3ccccc3n2)o1` (single isomer, unassigned), for which the AC50 is 1 to 5 µM.

Consider `COCc1ncc(C(=O)N2CCc3[nH]cnc3[C@@H]2c2ccc3ccccc3n2)s1` (single isomer, unassigned), for which the AC50 was 1 to 5 µM.

For the compound `CC(C)(O)c1ncc(C(=O)N2CCc3[nH]cnc3C2c2cc3ccccc3cn2)o1` (single isomer, unassigned), the half-maximal activity concentration (AC50) lay within 1 to 5 µM.

`Cc1nc(C(C)(C)O)oc1C(=O)N1CCc2[nH]cnc2[C@H]1c1cc2ccccc2cn1` (single isomer, unassigned): the concentration at half-maximal activity (AC50) lay in the range of 1 to 5 µM.

For the compound `O=C(c1cnc(-c2ccccn2)o1)N1CCc2[nH]cnc2[C@@H]1c1cc2ccccc2nn1` (single isomer, unassigned), the half-maximal activity concentration (AC50) was greater than 5 µM.

Turning to `O=C(Cc1coc(C(F)F)n1)N1CCc2nc[nH]c2[C@H]1c1cn2ccccc2n1` (single isomer, unassigned), the AC50 is greater than 5 µM.

Turning to `O=C(c1oc(-c2ccccn2)nc1C1CC1)N1CCc2nc[nH]c2[C@H]1c1cn2ccccc2n1` (single isomer, unassigned), the AC50 is greater than 5 µM.

`FC(F)c1nnc(N2CCc3[nH]cnc3[C@H]2c2ccc3ccccc3n2)o1` (single isomer, unassigned): the half-maximal activity concentration (AC50) was greater than 5 µM.

Turning to `Cc1nc(N(C)C)oc1C(=O)N1CCc2[nH]cnc2[C@H]1c1ccc2ccccc2n1` (single isomer, unassigned), the concentration at half-maximal activity (AC50) was greater than 5 µM.

As to `C[C@@H](O)c1nnc(C(=O)N2CCc3[nH]cnc3[C@H]2c2cc3ccccc3nn2)o1` (single isomer, unassigned), the concentration at half-maximal activity (AC50) was greater than 5 µM.

Turning to `C[C@H](O)c1nnc(C(=O)N2CCc3[nH]cnc3[C@H]2c2cc3ccccc3nn2)o1` (single isomer, unassigned), the AC50 was in the range of 1 to 5 µM.

Regarding `Cc1ncoc1C(=O)N1CC2(CC2)c2[nH]cnc2[C@H]1c1ccc2ccccc2n1` (single isomer, unassigned), the AC50 is greater than 5 µM.

With `COCCNc1nnc(C(=O)N2C[C@@H](C)c3[nH]cnc3[C@H]2c2cc3ccccc3cn2)o1` (single isomer, unassigned), the concentration at half-maximal activity (AC50) is greater than 5 µM.

Turning to `C[C@H]1CN(C(=O)c2nnc(N3CC(F)C3)o2)[C@H](c2cc3ccccc3cn2)c2nc[nH]c21` (single isomer, unassigned), the concentration at half-maximal activity (AC50) lay in the range of 1 to 5 µM.

With `CC1CN(C(=O)c2nnc(NC3CC3)o2)C(c2cc3ccccc3cn2)c2nc[nH]c21` (single isomer, unassigned), the AC50 is greater than 5 µM.
